Key:
[1] = target: T1, Nuclear receptor ROR-gamma (Homo sapiens, UniProt P51449); assay: Inhibition of GAL4 DNA-binding domain fused RORgamma (unknown origin) transfected in CHO-K1 cells incubated for 2 days by luciferase assay; assay type: cell-based
T1 sequence (P51449 whole entry): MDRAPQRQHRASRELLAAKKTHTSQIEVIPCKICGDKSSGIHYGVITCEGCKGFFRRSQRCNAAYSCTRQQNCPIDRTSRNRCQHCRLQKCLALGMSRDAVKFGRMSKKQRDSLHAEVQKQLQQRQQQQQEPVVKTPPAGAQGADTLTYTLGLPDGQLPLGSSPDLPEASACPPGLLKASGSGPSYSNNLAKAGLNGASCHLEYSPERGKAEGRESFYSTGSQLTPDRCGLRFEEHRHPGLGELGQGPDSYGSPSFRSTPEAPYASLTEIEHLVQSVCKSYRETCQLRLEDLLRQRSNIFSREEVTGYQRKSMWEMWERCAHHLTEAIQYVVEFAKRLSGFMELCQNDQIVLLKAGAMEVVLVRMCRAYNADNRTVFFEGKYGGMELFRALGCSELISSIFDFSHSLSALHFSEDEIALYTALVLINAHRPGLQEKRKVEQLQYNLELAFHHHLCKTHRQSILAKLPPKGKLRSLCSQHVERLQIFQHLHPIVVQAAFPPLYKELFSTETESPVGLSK

[2] = Lipophilicity, logD of compound by RP-HPLC analysis; assay type: physicochemical
[3] = Metabolic stability in human liver microsomes assessed as compound remaining at 5 umol/L measured after 60 mins by UPLC/MS analysis; assay type: ADME, Microsome; conditions: dose 5 µmol/L, read-out: Stability
[4] = Apparent permeability in human Caco-2 cells at 25 umol/L incubated for 2 hrs by LC/MS/MS analysis; assay type: ADME, cell-based; conditions: dose 25 µmol/L
[5] = Elimination half life in CD(SD) rat at 1 mg/kg, iv administered as single dose and measured after 24 hrs; assay type: ADME, organism-based; conditions: in vivo, read-out: beta t1/2 (converted)
[6] = Total body clearance in CD(SD) rat at 1 mg/kg, iv administered as single dose and measured after 24 hrs; assay type: ADME, organism-based; conditions: in vivo
[7] = Volume of distribution at steady state in CD(SD) rat at 1 mg/kg, iv administered as single dose and measured after 24 hrs; assay type: ADME, organism-based; conditions: in vivo, read-out: Vdss
[8] = AUCinfinity in CD(SD) rat at 3 mg/kg, po administered as single dose and measured after 24 hrs; assay type: ADME, organism-based; conditions: in vivo
[9] = MRT in CD(SD) rat at 3 mg/kg, po administered as single dose and measured after 24 hrs; assay type: ADME, organism-based; conditions: in vivo
[10] = Oral bioavailability in CD(SD) rat at 3 mg/kg administered as single dose and measured after 24 hrs; assay type: ADME, organism-based; conditions: in vivo

| Structure (SMILES) | EC50 [1] [nM] | logD [2] | remaining at 1 h, 5 µM [3] [%] | Papp at 2 h, 25 µM [4] [×10⁻⁶ cm/s] | half-life [5] [h] | clearance [6] [mL/min/kg] | Vd [7] [L/kg] | AUC(0-inf) [8] [µM·h] | MRT [9] [h] | bioavailability [10] [%] |
| --- | --- | --- | --- | --- | --- | --- | --- | --- | --- | --- |
| Cc1ccc(NC(=O)C[C@H](CCC(=O)O)n2nnc([C@H]3C[C@@H](CC(C)(C)C)C3)c2C2CC2)c(Cl)c1 | 22 | 4.3 | 73 | 22.6 | 1.5 | 30 | 1.4 | 2 | 2.5 | 61 |
| Cc1ccc(NC(=O)C[C@H](CCC(=O)O)c2nnn([C@H]3C[C@@H](CC(C)(C)C)C3)c2C2CC2)c(Cl)c1 | – | 4.2 | 86 | 30.9 | 1.5 | 16.5 | 0.67 | 2.8 | 3.6 | 46 |
| Cc1ccc(NC(=O)C[C@H](CC(=O)O)c2noc([C@H]3C[C@@H](CC(C)(C)C)C3)c2C2CC2)c(C)c1 (mixture of isomers) | 29 | 4.5 | 82 | 24.6 | – | – | – | – | – | – |
| Cc1ccc(NC(=O)CC(c2nnc([C@H]3C[C@@H](CC(C)C)C3)n2C2CC2)C2CNC2)c(C)c1.Cl (mixture of isomers) | > 20000 | 3.7 | 95 | < 0.1 | – | – | – | – | – | – |

— ChEMBL document CHEMBL5537159, “Discovery and SAR of JTE-151: A Novel RORγ Inhibitor for Clinical Development” (J Med Chem, 2024)
